Data published in patent publication US20150125915A1, “Method for Producing Lactic Acid” (Kao Corporation, priority 2012, published 2015).

Legend:
[1] = tested on: fungus of the genus Rhizopus; experiment: Evaluation of ability to produce lactic acid-4 (surfactant added to the lactic acid production medium); format: cell-based; conditions: for Production rate of lactic acid (relative value): mycelia prepared with 0.5% (w/v), non-supplemented = 100
Description: Specifically, the mycelia of a fungus of the genus Rhizopus were prepared by the method of Production Example 2 using the surfactant and then grown by the method of Production Example 3. 6.0 g of the obtained wet fungus bodies of the genus Rhizopus was inoculated to 40 mL of an inorganic culture medium for lactic acid production evaluation (composition: 8.0% glucose, 0.1% ammonium sulfate, 0.06% potassium dihydrogen phosphate, 0.025% magnesium sulfate heptahydrate, 0.009% zinc sulfate heptahydrate, and 5.0% calcium carbonate; all the concentrations mean % (w/v)) applied to a 200-mL Erlenmeyer flask, and then cultured at 35° C. with stirring at 170 rpm. The supernatant of the culture medium was recovered every 2 hours from 30 minutes after the fungus body inoculation. Glucose and lactic acid were quantified by the procedures described later in Reference Example 1. A relative value of the production rate of lactic acid was determined on the basis of the calculation method described in Reference Example 2.
Mycelia of a fungus of the genus Rhizopus were prepared in a medium containing 0.5% (w/v) (final concentration) of sorbitan monolaurate (Rheodol(R) SP-L10) by the same procedures as in Production Example 2 and then cultured by the same procedures as in Production Example 3. The fungus bodies were cultured by the sane procedures as in Test Example 2 and evaluated for its production rate of lactic acid. In this respect, the inorganic medium for lactic acid production evaluation was non-supplemented or supplemented with 0.1% (w/v), 0.2% (w/v), 0.5% (w/v), or 1% (w/v) (final concentration) of Rheodol(R) SP-L10. The amount of lactic acid was measured at 4 hours and 8.5 hours of the culture to calculate the production rate of lactic acid. The production rate of lactic acid was reduced in the medium supplemented with 0.1% (w/v) or higher of Rheodol(R) SP-L10 during lactic acid production.
The concentration of lactic acid (unit: g of lactic acid/L of medium) in the supernatant sample of each culture medium was measured according to Reference Example 1 and divided by a time (unit: hr) required for change in lactic acid concentration to calculate the production rate of lactic acid per unit time (unit: g of lactic acid/L/hr). In addition, a relative value to the production rate of lactic acid under control conditions in each Production Example was determined.

[2] = tested on: Rhizopus oryzae NBRC 4785; experiment: Evaluation of ability to produce lactic acid-2, strain NBRC 4785; format: cell-based; conditions: 0.5% (w/v) at spore germination, control of the strain without surfactant = 100
Description: (1) Spore suspensions were prepared in the same way as in Production Example 1 using Rhizopus oryzae NBRC 4707, NBRC 4785, NBRC 5384 (=JCM14625), and NBRC 5418 strains obtained from a culture collection NBRC.
(2) Mycelia were prepared from the spores of each strain under the same conditions as in Production Example 2 involving stirring at 100 rpm using 60 mL of a PDB medium non-supplemented or supplemented with 0.5% (w/v) (final concentration) of the surfactant sorbitan monolaurate (Rheodol(R) SP-L10, manufactured by Kao Corp.).
(3) The total amount of the fungus bodies obtained in (2) was inoculated to 100 mL of an inorganic culture medium under the same conditions as in Production Example 3 to grow the mycelia. […]
30 g of the prepared wet fungus bodies of each strain of the genus Rhizopus was inoculated to 100 mL of an inorganic culture medium for lactic acid production evaluation (composition: 12.5% glucose, 0.1% ammonium sulfate, 0.06% potassium dihydrogen phosphate, 0.025% magnesium sulfate heptahydrate, 0.009% zinc sulfate heptahydrate, and 6.25% calcium carbonate; all the concentrations mean % (w/v)) applied to a 500-mL Erlenmeyer flask, and then cultured at 33.5° C. with stirring at 170 rpm. The production rate of lactic acid was determined by the same procedures as in Test Example 2. […]

In the case of Sorbitan monolaurate, the “Production rate of lactic acid (relative value)” value ([1]; 0.1% w/v added to lactic acid production medium) is reported as 93 relative value, the “Production rate of lactic acid (relative value)” value ([1]; 0.2% w/v added to lactic acid production medium) is reported as 67 relative value and the “Production rate of lactic acid (relative value)” value ([1]; 0.5% w/v added to lactic acid production medium) is reported as 4 relative value. The “Production rate of lactic acid (relative value)” value ([1]; 1% w/v added to lactic acid production medium) was 0 relative value, the “Production rate of lactic acid (in words)” value ([1]; medium supplemented with 0.1% (w/v) or higher during lactic acid production) was “reduced” and the “Production rate of lactic acid (relative value)” value [2] was 170 relative value.
